Test results published in PMC9401487 (Clinical Cancer Research, 2021).

System: patients with advanced solid tumors
Experiment: Phase I safety and tolerability
Type: in vivo, human
[1] = Cohort 5 (N=8), 60 mg QD 7 days + carboplatin
[2] = Cohort 6 (N=7), co-dosing 60 mg QD + carboplatin days 1–3
[3] = Cohort 6: 60 mg QD days 1–3 + carboplatin AUC5 day 1, 7 patients
[4] = Cohort 7 (N=6), co-dosing 40 mg QD + carboplatin days 1 and 2

## C[C@@H]1COCCN1c1cc(C2([S@](C)(=N)=O)CC2)nc(-c2cc[nH]c3nccc2-3)n1 [ceralasertib]
[1]
  TEAE Arthralgia, Grade 1–2: 2 (25) patients, n (%)
  TEAE Arthralgia, Grade ≥3: 0 patients, n (%)
  TEAE Aspartate aminotransferase increased, Grade 1–2: 1 (13) patients, n (%)
  TEAE Aspartate aminotransferase increased, Grade ≥3: 1 (13) patients, n (%)
  TEAE Constipation, Grade 1–2: 1 (13) patients, n (%)
  TEAE Constipation, Grade ≥3: 0 patients, n (%)
  TEAE Contusion, Grade 1–2: 0 patients, n (%)
  TEAE Contusion, Grade ≥3: 0 patients, n (%)
  TEAE Cough, Grade 1–2: 0 patients, n (%)
  TEAE Cough, Grade ≥3: 0 patients, n (%)
  TEAE Decreased appetite, Grade 1–2: 2 (25) patients, n (%)
  TEAE Decreased appetite, Grade ≥3: 0 patients, n (%)
  TEAE Diarrhea, Grade 1–2: 1 (13) patients, n (%)
  TEAE Diarrhea, Grade ≥3: 0 patients, n (%)
  TEAE Dizziness, Grade 1–2: 2 (25) patients, n (%)
  TEAE Dizziness, Grade ≥3: 0 patients, n (%)
  TEAE Dyspnea, Grade 1–2: 0 patients, n (%)
  TEAE Dyspnea, Grade ≥3: 0 patients, n (%)
  TEAE Fatigue, Grade 1–2: 3 (38) patients, n (%)
  TEAE Fatigue, Grade ≥3: 0 patients, n (%)
  TEAE Hypocalcemia, Grade 1–2: 2 (25) patients, n (%)
  TEAE Hypocalcemia, Grade ≥3: 0 patients, n (%)
  TEAE Insomnia, Grade 1–2: 0 patients, n (%)
  TEAE Insomnia, Grade ≥3: 0 patients, n (%)
  TEAE Lower respiratory tract infection, Grade 1–2: 1 (13) patients, n (%)
  TEAE Lower respiratory tract infection, Grade ≥3: 1 (13) patients, n (%)
  TEAE Nausea, Grade 1–2: 4 (50) patients, n (%)
  TEAE Nausea, Grade ≥3: 0 patients, n (%)
  TEAE Neutropenia, Grade 1–2: 0 patients, n (%)
  TEAE Neutropenia, Grade ≥3: 0 patients, n (%)
  TEAE Neutrophil count decreased, Grade 1–2: 0 patients, n (%)
  TEAE Neutrophil count decreased, Grade ≥3: 1 (13) patients, n (%)
  TEAE Platelet count decreased, Grade 1–2: 1 (13) patients, n (%)
  TEAE Platelet count decreased, Grade ≥3: 0 patients, n (%)
  TEAE Pyrexia, Grade 1–2: 2 (25) patients, n (%)
  TEAE Pyrexia, Grade ≥3: 0 patients, n (%)
  TEAE Thrombocytopenia, Grade 1–2: 4 (50) patients, n (%)
  TEAE Thrombocytopenia, Grade ≥3: 2 (25) patients, n (%)
  TEAE Upper respiratory tract infection, Grade 1–2: 0 patients, n (%)
  TEAE Upper respiratory tract infection, Grade ≥3: 0 patients, n (%)
  TEAE Vomiting, Grade 1–2: 0 patients, n (%)
  TEAE Vomiting, Grade ≥3: 0 patients, n (%)
  TEAE White blood cell count decreased, Grade 1–2: 0 patients, n (%)
  TEAE White blood cell count decreased, Grade ≥3: 1 (13) patients, n (%)
[2]
  TEAE Abdominal pain, Grade 1–2: 1 (14) patients, n (%)
  TEAE Abdominal pain, Grade ≥3: 0 patients, n (%)
  TEAE Alanine aminotransferase increased, Grade 1–2: 0 patients, n (%)
  TEAE Alanine aminotransferase increased, Grade ≥3: 0 patients, n (%)
  TEAE Anemia, Grade 1–2: 2 (29) patients, n (%)
  TEAE Anemia, Grade ≥3: 4 (57) patients, n (%)
  TEAE Any AE, Grade 1–2: 0 patients, n (%)
  TEAE Any AE, Grade ≥3: 7 (100) patients, n (%)
  TEAE Arthralgia, Grade 1–2: 0 patients, n (%)
  TEAE Arthralgia, Grade ≥3: 0 patients, n (%)
  TEAE Aspartate aminotransferase increased, Grade 1–2: 0 patients, n (%)
  TEAE Aspartate aminotransferase increased, Grade ≥3: 0 patients, n (%)
  TEAE Constipation, Grade 1–2: 1 (14) patients, n (%)
  TEAE Constipation, Grade ≥3: 0 patients, n (%)
  TEAE Contusion, Grade 1–2: 0 patients, n (%)
  TEAE Contusion, Grade ≥3: 0 patients, n (%)
  TEAE Cough, Grade 1–2: 0 patients, n (%)
  TEAE Cough, Grade ≥3: 0 patients, n (%)
  TEAE Decreased appetite, Grade 1–2: 0 patients, n (%)
  TEAE Decreased appetite, Grade ≥3: 0 patients, n (%)
  TEAE Diarrhea, Grade 1–2: 1 (14) patients, n (%)
  TEAE Diarrhea, Grade ≥3: 0 patients, n (%)
  TEAE Dizziness, Grade 1–2: 1 (14) patients, n (%)
  TEAE Dizziness, Grade ≥3: 0 patients, n (%)
  TEAE Dyspnea, Grade 1–2: 1 (14) patients, n (%)
  TEAE Dyspnea, Grade ≥3: 0 patients, n (%)
  TEAE Fatigue, Grade 1–2: 1 (14) patients, n (%)
  TEAE Fatigue, Grade ≥3: 0 patients, n (%)
  TEAE Hypocalcemia, Grade 1–2: 1 (14) patients, n (%)
  TEAE Hypocalcemia, Grade ≥3: 0 patients, n (%)
  TEAE Insomnia, Grade 1–2: 2 (29) patients, n (%)
  TEAE Insomnia, Grade ≥3: 0 patients, n (%)
  TEAE Lower respiratory tract infection, Grade 1–2: 1 (14) patients, n (%)
  TEAE Lower respiratory tract infection, Grade ≥3: 0 patients, n (%)
  TEAE Nausea, Grade 1–2: 6 (86) patients, n (%)
  TEAE Nausea, Grade ≥3: 1 (14) patients, n (%)
  TEAE Neutropenia, Grade 1–2: 1 (14) patients, n (%)
  TEAE Neutropenia, Grade ≥3: 5 (71) patients, n (%)
  TEAE Neutrophil count decreased, Grade 1–2: 0 patients, n (%)
  TEAE Neutrophil count decreased, Grade ≥3: 1 (14) patients, n (%)
  TEAE Platelet count decreased, Grade 1–2: 0 patients, n (%)
  TEAE Platelet count decreased, Grade ≥3: 0 patients, n (%)
  TEAE Pyrexia, Grade 1–2: 1 (14) patients, n (%)
  TEAE Pyrexia, Grade ≥3: 0 patients, n (%)
  TEAE Thrombocytopenia, Grade 1–2: 2 (29) patients, n (%)
  TEAE Thrombocytopenia, Grade ≥3: 4 (57) patients, n (%)
  TEAE Upper respiratory tract infection, Grade 1–2: 0 patients, n (%)
  TEAE Upper respiratory tract infection, Grade ≥3: 0 patients, n (%)
  TEAE Vomiting, Grade 1–2: 4 (57) patients, n (%)
  TEAE Vomiting, Grade ≥3: 1 (14) patients, n (%)
  TEAE White blood cell count decreased, Grade 1–2: 0 patients, n (%)
  TEAE White blood cell count decreased, Grade ≥3: 2 (29) patients, n (%)
[3]
  Number of DLTs: no DLTs
  SRC decision (tolerability): not tolerated beyond cycle 1
[4]
  TEAE Abdominal pain, Grade 1–2: 2 (33) patients, n (%)
  TEAE Abdominal pain, Grade ≥3: 0 patients, n (%)
  TEAE Alanine aminotransferase increased, Grade 1–2: 1 (17) patients, n (%)
  TEAE Alanine aminotransferase increased, Grade ≥3: 0 patients, n (%)
  TEAE Anemia, Grade 1–2: 1 (17) patients, n (%)
  TEAE Anemia, Grade ≥3: 4 (67) patients, n (%)
  TEAE Any AE, Grade 1–2: 1 (17) patients, n (%)
  TEAE Any AE, Grade ≥3: 5 (83) patients, n (%)
  TEAE Arthralgia, Grade 1–2: 1 (17) patients, n (%)
  TEAE Arthralgia, Grade ≥3: 0 patients, n (%)
  TEAE Aspartate aminotransferase increased, Grade 1–2: 1 (17) patients, n (%)
  TEAE Aspartate aminotransferase increased, Grade ≥3: 0 patients, n (%)
